According to US5482948A, “Pyridyl derivatives and pharmaceutical compositions comprising these compounds” (Dr. Karl Thomae GmbH, priority 1991, dated 1996):

Key:
Thromboxane = target: T1, Thromboxane (Homo sapiens, UniProt P21731); assay: Thromboxane-antagonistic activity (displacement of 3H-labelled ligand on human platelets); assay type: binding; conditions: human platelet suspension, 60 minutes at ambient temperature
T1 construct: endogenous in cells; host or cells: human platelets (platelet-rich plasma passed through Sepharose 2B)
T1 sequence (P21731 1-343): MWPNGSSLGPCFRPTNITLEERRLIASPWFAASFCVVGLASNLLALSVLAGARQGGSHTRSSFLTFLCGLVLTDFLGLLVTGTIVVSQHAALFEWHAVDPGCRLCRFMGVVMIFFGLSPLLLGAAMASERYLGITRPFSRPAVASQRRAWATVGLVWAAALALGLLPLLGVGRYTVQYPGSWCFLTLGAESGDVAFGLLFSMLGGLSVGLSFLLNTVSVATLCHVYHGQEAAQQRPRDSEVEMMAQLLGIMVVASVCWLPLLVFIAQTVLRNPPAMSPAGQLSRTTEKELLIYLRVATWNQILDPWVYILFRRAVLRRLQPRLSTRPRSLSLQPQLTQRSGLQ
Experimental: Thromboxane-antagonistic Activity
Venous human blood is anti-coagulated with 13 mM Na3 citrate and centrifuged for 10 minutes at 170×g. The supernatant platelet-rich plasma is passed through a Sepharose 2B column in order to remove the plasma proteins. Aliquots of the platelet suspension obtained are incubated with the test substance, the ligand (^3 H-labelled) and a marker (^14 C-labelled) for 60 minutes at ambient temperature and then centrifuged for 20 seconds at 10,000×g. The supernatant is removed and the pellet is dissolved in NaOH. The ^3 H activity in the supernatant corresponds to the free ligand, ^14 C gives the concentration of the marker. ^3 H in the pellet corresponds to the bound ligand whilst ^14 C is used to correct for the ligand in the extracellular space. After the process has been repeated, the displacement curve is determined from the binding values for different concentrations of the test substance and the IC50 is determined.

thrombocyte aggregation = assay: Antithrombotic activity: collagen-induced aggregation in platelet-rich plasma (Born and Cross); assay type: cell-based; conditions: Homo sapiens, 10 min; platelet-rich plasma from healthy volunteers; incubated 10 minutes at 37° C.; 50% change in optical density; read-out: Inhibition of collagen-induced aggregation EC50
Experimental: The thrombocyte aggregation is measured using the method of Born and Cross (J. Physiol. 170, 397 (1964)) in platelet-rich plasma taken from healthy volunteers. To inhibit coagulation, the blood is mixed with 3.14% strength sodium citrate in a ratio by volume of 1:10.
Collagen-induced Aggregation
The pattern of decrease in the optical density of the platelet suspension is photometrically measured and recorded after the addition of the aggregation-triggering substance. The rate of aggregation is concluded from the angle of inclination of the density curve. The point on the curve where there is greatest light transmittance is used to calculate the "optical density".
The quantity of collagen used is as little as possible but sufficient to produce an irreversible reaction curve. Standard commercial collagen produced by Hormonchemie of Munich is used. Before the addition of the collagen the plasma is incubated for 10 minutes with the substance at 37° C.
From the measurements obtained an EC50 is determined by plotting a graph, and indicates a 50% change in the "optical density" in terms of the inhibition of aggregation.

thromboxane synthetase = target: T2, thromboxane synthetase (Homo sapiens, UniProt P24557); assay: Inhibitory effect on thromboxane synthetase (TXB2 formation in human platelet suspension); assay type: cell-based; conditions: 10 minutes at ambient temperature, then 14C-labelled arachidonic acid 10 minutes, read-out: Inhibition of thromboxane synthetase IC50
T2 construct: endogenous in cells; host or cells: human platelets (platelet-rich plasma passed through Sepharose 2B)
T2 sequence (P24557 1-533): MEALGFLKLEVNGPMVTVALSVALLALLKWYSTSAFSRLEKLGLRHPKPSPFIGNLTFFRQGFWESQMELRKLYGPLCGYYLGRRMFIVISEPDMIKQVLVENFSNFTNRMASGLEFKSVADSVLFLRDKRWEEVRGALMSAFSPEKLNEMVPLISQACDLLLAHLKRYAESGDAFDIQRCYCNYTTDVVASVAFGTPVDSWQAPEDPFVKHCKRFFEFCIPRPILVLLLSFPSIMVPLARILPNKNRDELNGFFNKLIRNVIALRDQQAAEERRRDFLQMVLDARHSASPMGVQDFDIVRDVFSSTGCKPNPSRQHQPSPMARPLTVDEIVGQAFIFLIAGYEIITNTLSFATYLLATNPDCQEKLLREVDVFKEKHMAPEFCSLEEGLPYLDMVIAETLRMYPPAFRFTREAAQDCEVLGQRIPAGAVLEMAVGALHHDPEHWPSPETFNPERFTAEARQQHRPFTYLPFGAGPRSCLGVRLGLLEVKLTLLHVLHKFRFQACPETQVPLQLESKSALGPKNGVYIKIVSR
Experimental: Determining the Inhibitory Effect on Thromboxane Synthetase
Venous human blood is anti-coagulated with 13 mM Na3 citrate and centrifuged for 10 minutes at 170×g. The supernatant platelet-rich plasma is passed through a Sepharose 2B column in order to remove the plasma proteins. Aliquots of the platelet suspension obtained are incubated with the test substance or with a solvent as control for 10 minutes at ambient temperature and after the addition of ^14 C-labelled arachidonic acid incubation is continued for a further 10 minutes. After this has been stopped with 50 μl of citric acid, extraction is carried out 3 times with 500 μl of ethyl acetate and the combined extracts are distilled off with nitrogen. The residue is taken up in ethyl acetate, placed on TLC film and separated with chloro-form:methanol:glacial acetic acid:water (90:8:1:0.8, v/v/v/v). The dried TLC films are placed on X-ray film for 3 days, the autoradiograms were developed and the active zones were marked on the film using the autoradiograms. After cutting out, the activity is measured in a scintillation counter and the inhibition of the formation of TXB2 is calculated. The IC50 is determined by linear interpolation.

IC50 (Thromboxane) [nM] | IC50 (thromboxane synthetase) [nM] | SMILES | EC50 (thrombocyte aggregation) [nM]
17 | 4 | N#CN=C(Nc1cccc(/C(=C\CCCC(=O)O)c2cccnc2)c1)N[C@@H]1C[C@H]2CC[C@@H]1C2 (relative stereo) [E, 5E-6-(3-(2-cyano-3-(exo-norborn-2-yl)guanidino)phenyl)-6-(3-pyridyl)hex-5-enoic acid] | 750
17 | 380 | N#CN=C(Nc1cccc(/C(=C\CCCC(=O)O)c2cccnc2)c1)NC1CC1 [A, 5E-6-(3-(2-cyano-3-cyclopropyl-guanidino)phenyl)-6-(3-pyridyl)hex-5-enoicacid] | –
11 | – | CC(C)(C)NC(=NC#N)Nc1cccc(/C(=C\CCCC(=O)O)c2cccnc2)c1 [B, 5E-6-(3-(2-cyano-3-tert.butyl-guanidino)phenyl)-6-(3-pyridyl)hex-5-enoic acid] | 500
30 | 3 | N#CN=C(Nc1cccc(/C(=C\CCCC(=O)O)c2cccnc2)c1)NC1CCCC1 [C, 5E-6-(3-(2-cyano-3-cyclopentyl-guanidino)phenyl)-6-(3-pyridyl)hex-5-enoicacid] | 530
18 | 24 | CC(C)NC(=NC#N)Nc1cccc(/C(=C\CCCC(=O)O)c2cccnc2)c1 [D, 5E-6-(3-(2-cyano-3-isopropyl-guanidino)phenyl)-6-(3-pyridyl)hex-5-enoic acid] | –
27 | 3 | CC(C)CCNC(=NC#N)Nc1cccc(/C(=C\CCCC(=O)O)c2cccnc2)c1 [Example I, 5E-6-(3-(2-cyano-3-(3-methylbutyl)guanidino)phenyl)-6-(3-pyridyl)hex-5-enoic acid] | 690
55 | 4 | CC(C)(C)NC(=NS(=O)(=O)c1ccccc1)Nc1cccc(/C(=C\CCCC(=O)O)c2cccnc2)c1 [Example V, 5E-6-(3-(3-tert.butyl-2-phenylsulphonyl-guanidino)phenyl)-6-(3-pyridyl)hex-5-enoic acid] | 3000
7 | 30 | CC(C)CNC(=NC#N)Nc1cccc(/C(=C\CCCC(=O)O)c2cccnc2)c1 [F, 5E-6-(3-(2-cyano-3-(2-methylpropyl)guanidino)phenyl)-6-(3-pyridyl)hex-5-enoic acid] | 350
22 | 14 | CC(C)(C)CNC(=NC#N)Nc1cccc(/C(=C\CCCC(=O)O)c2cccnc2)c1 [G, 5E-6-(3-(2-cyano-3-neopentyl-guanidino)phenyl)-6-(3-pyridyl)hex-5-enoic acid] | 260
25 | 5 | CCCCCNC(=NC#N)Nc1cccc(/C(=C\CCCC(=O)O)c2cccnc2)c1 [H, 5E-6-(3-(2-cyano-3-pentyl-guanidino)phenyl)-6-(3-pyridyl)hex-5-enoic acid] | 640
2 | 30 | CC(C)CNC(Nc1cccc(/C(=C\CCCC(=O)O)c2cccnc2)c1)=C(C#N)C#N [J, 5E-6-(3-(2,2-dicyano-1-(2-methylpropylamino)ethyleneamino)phenyl)-6-(3-pyridyl)hex-5-enoic acid] | 120
2 | 45 | CC(C)NC(Nc1cccc(/C(=C\CCCC(=O)O)c2cccnc2)c1)=C(C#N)C#N [K, 5E-6-(3-(2,2-dicyano-1-isopropylaminoethyleneamino)phenyl)-6-(3-pyridyl)hex-5-enoic acid] | 20
15 | 31 | CC(C)CCNC(Nc1cccc(/C(=C\CCCC(=O)O)c2cccnc2)c1)=C(C#N)C#N [L, 5E-6-(3-(2,2-dicyano-1-(3-methylbutylamino)ethyleneamino)phenyl)-6-(3-pyridyl)hex-5-enoic acid] | 1200
1 | 33 | N#CC(C#N)=C(Nc1cccc(/C(=C\CCCC(=O)O)c2cccnc2)c1)NC1CCCC1 [M, 5E-6-(3-(2,2-dicyano-1-cyclopentylaminoethyleneamino)-phenyl)-6-(3-pyridyl)hex-5-enoic acid] | 50
3 | 44 | CC(C)(C)CNC(Nc1cccc(/C(=C\CCCC(=O)O)c2cccnc2)c1)=C(C#N)C#N [N, 5E-6-(3-(2,2-dicyano-1-neopentylaminoethyleneamino)phenyl)-6-(3-pyridyl)hex-5-enoic acid] | 620
62 | 65 | N#CC(C#N)=C(Nc1cccc(/C(=C\CCCC(=O)O)c2cccnc2)c1)NC1CC1 [O, 5E-6-(3-(2,2-dicyano-1-cyclopropylaminoethyleneamino)phenyl)-6-(3-pyridyl)hex-5-enoic acid] | 40
37 | 40 | CCCNC(Nc1cccc(/C(=C\CCCC(=O)O)c2cccnc2)c1)=C(C#N)C#N [P, 5E-6-(3-(2,2-dicyano-1-propylamino-ethyleneamino)phenyl)-6-(3-pyridyl)hex-5-enoic acid] | 50
50 | 50 | CC(C)(C)NC(Nc1cccc(/C(=C\CCCC(=O)O)c2cccnc2)c1)=C(C#N)C#N [Q, 5E-6-(3-(2,2-dicyano-1-tert.butylaminoethyleneamino)phenyl)-6-(3-pyridyl)hex-5-enoic acid] | 120
1300 | 180 | N#CN=C(Nc1ccc(/C(=C\CCCC(=O)O)c2cccnc2)cc1)NC1CCCCC1 [R, 5E-6-(4-(2-cyano-3-cyclohexyl-guanidino)phenyl)-6-(3-pyridyl)hex-5-enoic acid] | 31000
120 | 37 | CC(C)(C)NC(=NC#N)Nc1cccc(C(CCCCC(=O)O)c2cccnc2)c1 (stereo not drawn) [S, 6-(3-(2-cyano-3-tert.butyl-guanidino)phenyl)-6-(3-pyridyl)hexanoic acid] | 1100
280 | 290 | CC(C)(C)CNC(=C[N+](=O)[O-])Nc1cccc(/C(=C\CCCC(=O)O)c2cccnc2)c1 [T, 5E-6-(3-(1-neopentylamino-2-nitro-ethyleneamino)phenyl)-6-(3-pyridyl)hex-5-enoic acid] | 9500
50 | 7 | CC(C)(C)NC(=NC#N)NCCc1ccc(C(=CCCCC(=O)O)c2cccnc2)cc1 [U, E/Z-6-(4-(2-(2-cyano-3-tert.butyl-guanidino)ethyl)phenyl)-6-(3-pyridyl)hex-5-enoic acid] | 1200
